Measured values: PubChem BioAssay AID2060507 (Molecular Pharmacology Branch, DTP, NCI, 2025)
pIC50: −log10 of the molar value.

Test system: 519858-162-T-J1-PDC complex spheroid viability
Assay: Anticancer human tumor 519858-162-T-J1-PDC patient-derived colon adenocarcinoma cell line growth inhibition [GQUAD]
Settings: for pIC50: curve of first compound; for viability, T/C: stronger effect = lower value
Source text: DNA G-quadruplex Stabilizer Agents in Combinations in Complex Spheroids
A high-throughput screen of multi-cell type tumor spheroids was designed to identify active combinations of DNA G-quadruplex stabilizer agents and targeted small molecules. Complex spheroids include a stromal component modeled by human endothelial cells (HUVEC) and fibroblasts modeled by human mesenchymal stem cells (MSCs). The concentration ranges selected for each drug and investigational agent were based upon clinically achievable concentrations if the clinical Cmax of the agent was known.
Compounds. The drugs and investigational agents: pidnarulex (CX-5461; NSC782164), APTO-253 (NSC789042), BRACO-19 (NSC847499), peposertib (NSC802822), ceralasertib (NSC780249), elimusertib (NSC800525), camonsertib (NSC841442), AZD-1390 (NSC803789), olaparib (NSC753686), talazoparib (NSC767125), ART-558 (NSC835418), sotorasib (NSC818433), MRTX-1133 (NSC836407), SN-38 (NSC673596), topotecan (NSC609699), etoposide (NSC141540), doxorubicin (NSC123127), gemcitabine (NSC613327), 5-fluorouracil (NSC19893), paclitaxel (NSC125973), vemurafenib (NSC761431), panobinostat (NSC761190), R-306465 (JNJ-16241199; NSC773264), adavosertib (NSC754352), TP-3654 (NSC805149), carboplatin (NSC241240), KSQ-4279 (NSC840948), and staurosporine (NSC755774) were obtained from the National Cancer Institute (NCI) Developmental Therapeutics Program Chemical Repository (34). The FDA-approved anticancer drug set is available from the NCI Developmental Therapeutics Program. […] The stock solutions were prepared in dimethyl sulfoxide (DMSO, Sigma-Aldrich, St. Louis, MO, cat. D2650) at 800-fold the tested concentration and stored at -70 degrees C prior to their use. All drugs and investigational agents were tested over a range starting from a high concentration at or near the clinical Cmax and decreasing in half-log increments. If the clinical Cmax for an agent had not been determined, the highest concentration tested was 10 microM.
2.3 Cell Culture. All cells were maintained in an incubator at 37 degrees C and 5% CO2 with 95% humidity. The PDC lines were cultured according to standard operating procedures established by the NCI PDMR. All PDCs were thawed and cultured in Matrigel-coated flasks prepared with a working solution of 1X Ham's F-12 nutrient mix, without supplementation (Invitrogen, cat. 11765054), 100 U/mL penicillin-streptomycin (Invitrogen, cat. 15140122), and 2.5% Matrigel (Corning Inc., cat. 354248) for the first three passages. The 857933-349-R-J2-PDC line was cultured in 6C/Colon 1B media, which includes advanced DMEM/F-12 (Thermo Fisher Scientific, cat. 12634028), 10 mM HEPES (Thermo Fisher Scientific, cat. 15630080), 1X GlutaMAX supplement (Thermo Fisher Scientific, cat. 35050061), 0.1 mg/mL primocin (InvivoGen, cat. ant-pm-2), 10% defined fetal bovine serum, heat inactivated (HyClone Laboratories Inc., cat. SH30070.03HI), 50% L-WRN conditioned media (ATCC, cat. CRL-3276), 1.25 mM N-Acetyl-L-cysteine (Sigma-Aldrich, cat. A9165), 10 mM nicotinamide (Sigma-Aldrich, cat. N0636), 1X B-27 supplement (Thermo Fisher Scientific, cat. 17504044), 1X N-2 supplement (Thermo Fisher Scientific, cat. 17502048), 10 microM Y-27632 dihydrochloride (Tocris Bioscience, cat. 1254), and 50 ng/mL human EGF recombinant protein (Thermo Fisher Scientific, cat. PHG0311). The 485176-168-R4-J1-PDC line was cultured in Panc media, which includes all 6C/Colon 1B media components plus 100 ng/mL human FGF-10 (Thermo Fisher Scientific, cat. 100-26), 500 nM SB-431542 (Selleckchem, cat. S1067), and gastrin (Tocris, cat. 3006).
[…]

[1] = second compound 0.0316 µM, first compound 0.0316 µM
[2] = second compound 0.0316 µM, first compound 0.1 µM
[3] = second compound 0.0316 µM, first compound 0.316 µM
[4] = second compound 0.0316 µM, first compound 1 µM
[5] = second compound 0.0316 µM, first compound 3.16 µM
[6] = second compound 0.0316 µM, first compound 10 µM
[7] = second compound 0.1 µM, first compound 0.0316 µM
[8] = second compound 0.1 µM, first compound 0.1 µM
[9] = second compound 0.1 µM, first compound 0.316 µM
[10] = second compound 0.1 µM, first compound 1 µM
[11] = second compound 0.1 µM, first compound 3.16 µM
[12] = second compound 0.1 µM, first compound 10 µM
[13] = second compound 0.316 µM, first compound 0.0316 µM
[14] = second compound 0.316 µM, first compound 0.1 µM
[15] = second compound 0.316 µM, first compound 0.316 µM
[16] = second compound 0.316 µM, first compound 1 µM
[17] = second compound 0.316 µM, first compound 3.16 µM
[18] = second compound 0.316 µM, first compound 10 µM
[19] = second compound 1 µM, first compound 0.0316 µM
[20] = second compound 1 µM, first compound 0.1 µM
[21] = second compound 1 µM, first compound 0.316 µM
[22] = second compound 1 µM, first compound 1 µM
[23] = second compound 1 µM, first compound 3.16 µM
[24] = second compound 1 µM, first compound 10 µM
[25] = second compound 3.16 µM, first compound 0.0316 µM
[26] = second compound 3.16 µM, first compound 0.1 µM
[27] = second compound 3.16 µM, first compound 0.316 µM
[28] = second compound 3.16 µM, first compound 1 µM
[29] = second compound 3.16 µM, first compound 3.16 µM
[30] = second compound 3.16 µM, first compound 10 µM
[31] = second compound 10 µM, first compound 0.0316 µM
[32] = second compound 10 µM, first compound 0.1 µM
[33] = second compound 10 µM, first compound 0.316 µM
[34] = second compound 10 µM, first compound 1 µM
[35] = second compound 10 µM, first compound 3.16 µM
[36] = second compound 10 µM, first compound 10 µM
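Also: spheroids exposed to compounds for 7 days.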
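For viability, T/C in this document: 100% = DMSO vehicle control viability.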

`C=CC(=O)N1CCN(c2nc(=O)n(-c3c(C)ccnc3C(C)C)c3nc(-c4c(O)cccc4F)c(F)cc23)C(C)C1` (centres undefined) + CN(C)c1ccc(Nc2c3ccc(NC(=O)CCN4CCCC4)cc3nc3cc(NC(=O)CCN4CCCC4)ccc23)cc1 was tested. Which pIC50 (second compound 0.0316 µM) did it give?
Its pIC50 is under 5.00.

What about the pIC50 (second compound 0.1 µM) of the same molecule?
Its pIC50 is under 5.00.

What about the pIC50 (second compound 0.316 µM) of the same molecule?
The pIC50 was under 5.00.

What about the pIC50 (second compound 1 µM) of the same molecule?
The pIC50 was under 5.00.

And the pIC50 (second compound 3.16 µM)?
Its pIC50 is under 5.00.

And the pIC50 (second compound 10 µM)?
The pIC50 was over 7.50.

And the viability, T/C [1]?
Its viability, T/C is 91.5%.

And the viability, T/C [2]?
The viability, T/C was 84.4%.

And the viability, T/C [3]?
The viability, T/C was 61.4%.

And the viability, T/C [4]?
Its viability, T/C is 69.3%.

What about the viability, T/C [5] of the same molecule?
The viability, T/C was 94%.

What about the viability, T/C [6] of the same molecule?
The viability, T/C was 110%.

What about the viability, T/C [7] of the same molecule?
Its viability, T/C is 81.7%.

And the viability, T/C [8]?
The viability, T/C was 72.3%.

What about the viability, T/C [9] of the same molecule?
Its viability, T/C is 80.3%.

What about the viability, T/C [10] of the same molecule?
The viability, T/C was 61.8%.

And the viability, T/C [11]?
The viability, T/C was 84.1%.

What about the viability, T/C [12] of the same molecule?
Its viability, T/C is 95.8%.

And the viability, T/C [13]?
The viability, T/C was 88.3%.

And the viability, T/C [14]?
The viability, T/C was 80.8%.

What about the viability, T/C [15] of the same molecule?
The viability, T/C was 120%.

And the viability, T/C [16]?
The viability, T/C was 68.8%.

And the viability, T/C [17]?
The viability, T/C was 84%.

What about the viability, T/C [18] of the same molecule?
The viability, T/C was 60.1%.

And the viability, T/C [19]?
Its viability, T/C is 78.8%.

And the viability, T/C [20]?
Its viability, T/C is 74.4%.

What about the viability, T/C [21] of the same molecule?
The viability, T/C was 56.4%.

And the viability, T/C [22]?
Its viability, T/C is 69.3%.

What about the viability, T/C [23] of the same molecule?
The viability, T/C was 78.7%.

What about the viability, T/C [24] of the same molecule?
Its viability, T/C is 80.3%.

And the viability, T/C [25]?
The viability, T/C was 62.3%.

And the viability, T/C [26]?
Its viability, T/C is 63.9%.

And the viability, T/C [27]?
The viability, T/C was 68.8%.

And the viability, T/C [28]?
The viability, T/C was 62.2%.

What about the viability, T/C [29] of the same molecule?
Its viability, T/C is 47.6%.

And the viability, T/C [30]?
Its viability, T/C is 94.9%.

And the viability, T/C [31]?
Its viability, T/C is 48.2%.

What about the viability, T/C [32] of the same molecule?
The viability, T/C was 40.3%.

And the viability, T/C [33]?
The viability, T/C was 56.7%.

What about the viability, T/C [34] of the same molecule?
Its viability, T/C is 61.5%.

And the viability, T/C [35]?
The viability, T/C was 49.2%.

And the viability, T/C [36]?
The viability, T/C was 66.5%.

`CC1COCCN1c1cc(-c2ccnn2C)c2ccnc(-c3ccn[nH]3)c2n1` (centres undefined) + CN(C)c1ccc(Nc2c3ccc(NC(=O)CCN4CCCC4)cc3nc3cc(NC(=O)CCN4CCCC4)ccc23)cc1 was tested. Which pIC50 (second compound 0.0316 µM) did it give?
Its pIC50 is 5.37.

And the pIC50 (second compound 0.1 µM)?
The pIC50 was 5.36.

And the pIC50 (second compound 0.316 µM)?
The pIC50 was 5.15.

What about the pIC50 (second compound 1 µM) of the same molecule?
Its pIC50 is 5.32.

And the pIC50 (second compound 3.16 µM)?
Its pIC50 is 5.27.

What about the pIC50 (second compound 10 µM) of the same molecule?
The pIC50 was 5.35.

What about the viability, T/C [1] of the same molecule?
The viability, T/C was 87.2%.

And the viability, T/C [2]?
Its viability, T/C is 125%.

What about the viability, T/C [3] of the same molecule?
The viability, T/C was 88%.

What about the viability, T/C [4] of the same molecule?
Its viability, T/C is 101%.

And the viability, T/C [5]?
The viability, T/C was 54%.

What about the viability, T/C [6] of the same molecule?
The viability, T/C was 38%.

What about the viability, T/C [7] of the same molecule?
Its viability, T/C is 78.2%.

What about the viability, T/C [8] of the same molecule?
The viability, T/C was 106%.

What about the viability, T/C [9] of the same molecule?
Its viability, T/C is 86.4%.

And the viability, T/C [10]?
The viability, T/C was 124%.

What about the viability, T/C [11] of the same molecule?
Its viability, T/C is 55.4%.

And the viability, T/C [12]?
Its viability, T/C is 36.1%.

And the viability, T/C [13]?
Its viability, T/C is 91.3%.

What about the viability, T/C [14] of the same molecule?
The viability, T/C was 86.8%.

And the viability, T/C [15]?
Its viability, T/C is 79.3%.

And the viability, T/C [16]?
Its viability, T/C is 101%.

What about the viability, T/C [17] of the same molecule?
The viability, T/C was 79.6%.

What about the viability, T/C [18] of the same molecule?
The viability, T/C was 37.4%.

And the viability, T/C [19]?
Its viability, T/C is 100%.

What about the viability, T/C [20] of the same molecule?
Its viability, T/C is 85.7%.

What about the viability, T/C [21] of the same molecule?
The viability, T/C was 73.8%.

What about the viability, T/C [22] of the same molecule?
The viability, T/C was 102%.

And the viability, T/C [23]?
The viability, T/C was 63.4%.

And the viability, T/C [24]?
Its viability, T/C is 25.3%.

And the viability, T/C [25]?
The viability, T/C was 87.5%.

What about the viability, T/C [26] of the same molecule?
The viability, T/C was 83.9%.

What about the viability, T/C [27] of the same molecule?
The viability, T/C was 106%.

What about the viability, T/C [28] of the same molecule?
Its viability, T/C is 92.4%.

And the viability, T/C [29]?
Its viability, T/C is 58.7%.

What about the viability, T/C [30] of the same molecule?
Its viability, T/C is 39.5%.

What about the viability, T/C [31] of the same molecule?
Its viability, T/C is 71.2%.

And the viability, T/C [32]?
The viability, T/C was 101%.

And the viability, T/C [33]?
Its viability, T/C is 73.5%.

What about the viability, T/C [34] of the same molecule?
The viability, T/C was 100%.

And the viability, T/C [35]?
The viability, T/C was 51.1%.

And the viability, T/C [36]?
Its viability, T/C is 47.3%.
